{"source": "paper PMC2964429", "about": "(Biochemistry, 2010)", "key": {"Cys324": {"system": "Cys324", "assay": "chemical modification", "conditions": "37 °C, 50 mM HEPES, free enzyme (kinact/KI)"}, "[1]": {"molecular_target": "SmAgD (agmatine deiminase from S. mutans) (Streptococcus mutans serotype c, UniProt Q8DW17)", "sequence (Q8DW17 whole entry)": "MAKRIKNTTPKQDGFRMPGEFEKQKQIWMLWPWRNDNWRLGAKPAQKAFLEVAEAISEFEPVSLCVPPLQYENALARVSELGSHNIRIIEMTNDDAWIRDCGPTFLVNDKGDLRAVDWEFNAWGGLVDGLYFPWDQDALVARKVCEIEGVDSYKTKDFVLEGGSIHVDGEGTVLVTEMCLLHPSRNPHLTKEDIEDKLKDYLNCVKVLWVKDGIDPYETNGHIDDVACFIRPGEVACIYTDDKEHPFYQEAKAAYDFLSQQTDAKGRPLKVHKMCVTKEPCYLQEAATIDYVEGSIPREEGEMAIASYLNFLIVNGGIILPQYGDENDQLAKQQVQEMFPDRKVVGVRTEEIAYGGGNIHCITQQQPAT", "assay": "IC50 determination, agmatine deiminase discontinuous ureido", "assay_type": "biochemical"}, "[2]": {"molecular_target": "PgAgD (agmatine deiminase from P. gingivalis) (Porphyromonas gingivalis, UniProt Q7MXM8)", "assay": "IC50 determination, agmatine deiminase discontinuous ureido", "assay_type": "biochemical"}, "[3]": {"molecular_target": "HpAgD (agmatine deiminase from Helicobacter pylori)", "conditions": "read-out: IC50 HpAgD; previously reported; cited from earlier work"}}}
{"molecule": "Agmatine deiminase (HpAgD) (Helicobacter pylori)", "values": [{"measurement": "pKa", "setting": "Cys324; 2-chloroacetamidine 0-60 mM", "value": "9.8 ± 0.1"}, {"measurement": "pKa", "setting": "Cys324; iodoacetamide 0-20 mM", "value": "9.2 ± 0.3"}]}
{"molecule": "N=C(CF)NCCCCN", "note": "[ABFA, N-(4-aminobutyl)-2-fluoro-ethanimidamide]", "values": [{"measurement": "IC50", "setting": "[1]", "value": "0.27 ± 0.1", "unit": "µM"}, {"measurement": "IC50", "setting": "[2]", "value": "91 ± 25", "unit": "µM"}, {"measurement": "IC50", "setting": "[3]", "value": "6.8 ± 0.26", "unit": "µM"}]}
{"molecule": "N=C(CCl)NCCCCN", "note": "[ABCA, N-(4-aminobutyl)-2-chloro-ethanimidamide]", "values": [{"measurement": "IC50", "setting": "[2]", "value": "15 ± 3", "unit": "µM"}, {"measurement": "IC50", "setting": "[3]", "value": "0.87 ± 0.03", "unit": "µM"}]}
